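Interpolation was linear, between the two tested concentrations surrounding the appropriate level; five concentrations were tested over 48 hours in 96-well plates. Abbreviation: GI50, concentration required for 50% inhibition of growth.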 The source made the active and inactive calls. Cut-off read from the data, not from the text of the source: active = GI50 up to about 1.1 µM and inactive = higher.
Columns and labels:
Assay in all cases: inhibition of tumour cell growth, NCI panel, 48 h
[1] = tested on: UACC-62
[2] = tested on: SK-MEL-28
[3] = tested on: SF-295
[4] = tested on: SK-MEL-5
[5] = tested on: U-251
[6] = tested on: OVCAR-4
[7] = tested on: DU-145
[8] = tested on: PC-3
[9] = tested on: Malme-3M
[10] = tested on: OVCAR-5
[11] = tested on: COLO 205
[12] = tested on: K562
[13] = tested on: UACC-257
[14] = tested on: MDA-MB-231
[15] = tested on: TK-10
[16] = tested on: UO-31
[17] = tested on: SNB-19
[18] = tested on: SN12C
[19] = tested on: NCI-H226
[20] = tested on: SNB-75

| Structure (SMILES) | GI50 [1] | GI50 [2] | GI50 [3] | GI50 [4] | GI50 [5] | GI50 [6] | GI50 [7] | GI50 [8] | GI50 [9] | GI50 [10] | GI50 [11] | GI50 [12] | GI50 [13] | GI50 [14] | GI50 [15] | GI50 [16] | GI50 [17] | GI50 [18] | GI50 [19] | GI50 [20] |
| --- | --- | --- | --- | --- | --- | --- | --- | --- | --- | --- | --- | --- | --- | --- | --- | --- | --- | --- | --- | --- |
| Cc1cc(O)c(C(C)C)cc1C(=S)Nc1ccc(Cl)cc1 | 10 µM (inactive) | 13.9 µM (inactive) | 14.2 µM (inactive) | 11.5 µM (inactive) | 14.7 µM (inactive) | 7.19 µM (inactive) | 17.7 µM (inactive) | 11 µM (inactive) | 7.52 µM (inactive) | 15 µM (inactive) | 16.1 µM (inactive) | 4.35 µM (inactive) | 10.9 µM (inactive) |  |  |  |  |  |  |  |
| O=C(/C=C/c1ccc2c(c1)OCO2)Cc1nc2ccccc2[nH]c1=O | 6.76 µM (inactive) | 16.4 µM (inactive) | 17.4 µM (inactive) | 32.6 µM (inactive) | 16.8 µM (inactive) |  | 29.2 µM (inactive) | 23.2 µM (inactive) | 18.3 µM (inactive) | 22.9 µM (inactive) | 52.6 µM (inactive) | 5.3 µM (inactive) | 25.4 µM (inactive) | 20.2 µM (inactive) | 18.5 µM (inactive) | 22.9 µM (inactive) | 24.2 µM (inactive) | 24.1 µM (inactive) |  |  |
| CCOC(=O)c1cc(NC(=O)c2ccccc2)c(=O)n2c(cc3c(Cl)cccc32)c1O | > 100 µM (inactive) | > 100 µM (inactive) | 57.4 µM (inactive) | > 100 µM (inactive) | > 100 µM (inactive) | > 100 µM (inactive) | > 100 µM (inactive) | > 100 µM (inactive) | > 100 µM (inactive) | > 100 µM (inactive) | > 100 µM (inactive) | > 100 µM (inactive) | > 100 µM (inactive) | > 100 µM (inactive) | > 100 µM (inactive) | > 100 µM (inactive) | > 100 µM (inactive) | > 100 µM (inactive) | > 100 µM (inactive) |  |
| CO/C(C)=N/CCC1=CCCCC1 | > 100 µM (inactive) | > 100 µM (inactive) | 55.5 µM (inactive) | > 100 µM (inactive) | > 100 µM (inactive) | > 100 µM (inactive) | > 100 µM (inactive) | > 100 µM (inactive) | > 100 µM (inactive) | > 100 µM (inactive) | > 100 µM (inactive) | 93.1 µM (inactive) | > 100 µM (inactive) | > 100 µM (inactive) | > 100 µM (inactive) | > 100 µM (inactive) | > 100 µM (inactive) |  |  | > 100 µM (inactive) |
| CC[N+](CC)(CC)/C(=N\S(=O)(=O)c1ccc(Cl)cc1)[N-]S(=O)(=O)c1cc(C)c(Cl)cc1S |  | > 100 µM (inactive) | 47 µM (inactive) | > 100 µM (inactive) | 43.1 µM (inactive) | 65.5 µM (inactive) | 97.3 µM (inactive) | 55.8 µM (inactive) |  | 58.2 µM (inactive) |  | 6.65 µM (inactive) | > 100 µM (inactive) | > 100 µM (inactive) | 58.7 µM (inactive) | > 100 µM (inactive) |  |  | 32.1 µM (inactive) |  |
| CCOc1ccc2nc(-c3ccc(O)cc3)sc2c1 | 56.9 µM (inactive) |  | 20.1 µM (inactive) | 89.5 µM (inactive) | 43.9 µM (inactive) |  | > 100 µM (inactive) | 58.7 µM (inactive) | > 100 µM (inactive) | > 100 µM (inactive) | > 100 µM (inactive) | > 100 µM (inactive) | 0.166 µM (active) | > 100 µM (inactive) | 73.1 µM (inactive) | 17.2 µM (inactive) | 23.9 µM (inactive) | > 100 µM (inactive) | > 100 µM (inactive) |  |
| CCOC(=O)C(C)(C)C(O)C(C)C (configuration not stated) | > 100 µM (inactive) | > 100 µM (inactive) | > 100 µM (inactive) | > 100 µM (inactive) | > 100 µM (inactive) | > 100 µM (inactive) | > 100 µM (inactive) | > 100 µM (inactive) | > 100 µM (inactive) | > 100 µM (inactive) | > 100 µM (inactive) | > 100 µM (inactive) | > 100 µM (inactive) | > 100 µM (inactive) | > 100 µM (inactive) | > 100 µM (inactive) | > 100 µM (inactive) | > 100 µM (inactive) |  | > 100 µM (inactive) |
| COc1ccc(C2=N/C(=C\c3ccccc3)C(=O)O2)cc1 |  | > 100 µM (inactive) | > 100 µM (inactive) |  | 62.7 µM (inactive) | 37.1 µM (inactive) |  | > 100 µM (inactive) |  | > 100 µM (inactive) |  | 34 µM (inactive) | > 100 µM (inactive) |  | > 100 µM (inactive) |  | 75.7 µM (inactive) |  | 28.5 µM (inactive) | 45.2 µM (inactive) |
| CCOC1=NC(C(F)(F)F)(C(F)(F)F)N=C(N2CCOCC2)O1 | 24 µM (inactive) | > 100 µM (inactive) | > 100 µM (inactive) | > 100 µM (inactive) | > 100 µM (inactive) | > 100 µM (inactive) | > 100 µM (inactive) | > 100 µM (inactive) |  | > 100 µM (inactive) | > 100 µM (inactive) |  | > 100 µM (inactive) | > 100 µM (inactive) | > 100 µM (inactive) | > 100 µM (inactive) | > 100 µM (inactive) | > 100 µM (inactive) |  | > 100 µM (inactive) |
| CCOC(=O)c1sc2nc(SC)nc3c2c1NC(=O)CN3c1ccc(F)cc1 | 47 µM (inactive) | 8.18 µM (inactive) | 20.1 µM (inactive) | 46.3 µM (inactive) | 43.5 µM (inactive) | 21.4 µM (inactive) | 40.4 µM (inactive) | 16.6 µM (inactive) | 48.4 µM (inactive) | 41.7 µM (inactive) | 68.9 µM (inactive) | 77.6 µM (inactive) | 68.7 µM (inactive) | 26.9 µM (inactive) | 30.7 µM (inactive) | 18 µM (inactive) | 27.8 µM (inactive) | 24.6 µM (inactive) | 41.7 µM (inactive) |  |
| COP(=O)(O)C(N)Cc1c[nH]c2ccccc12 (configuration not stated) |  | > 100 µM (inactive) | > 100 µM (inactive) | > 100 µM (inactive) | > 100 µM (inactive) | > 100 µM (inactive) | > 100 µM (inactive) | > 100 µM (inactive) |  | > 100 µM (inactive) | > 100 µM (inactive) | > 100 µM (inactive) | > 100 µM (inactive) | > 100 µM (inactive) | > 100 µM (inactive) | > 100 µM (inactive) | > 100 µM (inactive) | > 100 µM (inactive) | > 100 µM (inactive) |  |
| O=C(O)c1cc2cc(OCc3ccccc3)ccc2[nH]1 | > 100 µM (inactive) | 4.01 µM (inactive) | > 100 µM (inactive) | > 100 µM (inactive) | > 100 µM (inactive) |  | > 100 µM (inactive) | > 100 µM (inactive) | 0.116 µM (active) | > 100 µM (inactive) | > 100 µM (inactive) | > 100 µM (inactive) | 5.06 µM (inactive) | > 100 µM (inactive) | > 100 µM (inactive) | > 100 µM (inactive) | 73.6 µM (inactive) | > 100 µM (inactive) | 23.4 µM (inactive) |  |
| CNC(=O)OCC1C2=C(C(=O)C(C)=C(N)C2=O)N2CC3C(N3C)C12OC (configuration not stated) | 9.93 µM (inactive) | 47.9 µM (inactive) | 5.02 µM (inactive) | 11.5 µM (inactive) | 14.1 µM (inactive) | 15.7 µM (inactive) | 2.47 µM (inactive) | 13.9 µM (inactive) | 2.38 µM (inactive) | 72.8 µM (inactive) | 13.6 µM (inactive) | 25.6 µM (inactive) | 21.4 µM (inactive) | > 100 µM (inactive) | 27.7 µM (inactive) |  | 3.3 µM (inactive) | 5.61 µM (inactive) | 32.1 µM (inactive) |  |
| Cc1occc1/C(S)=N\c1ccc(Cl)c(COC(C)(C)C)c1 | 14.6 µM (inactive) | 16.5 µM (inactive) | 14.8 µM (inactive) | 16.2 µM (inactive) | 15.6 µM (inactive) | 15.3 µM (inactive) | 20.1 µM (inactive) | 14.5 µM (inactive) | 16.5 µM (inactive) | 19.4 µM (inactive) | 15.7 µM (inactive) |  | 15.7 µM (inactive) | 17.1 µM (inactive) | 19.4 µM (inactive) | 13.1 µM (inactive) | 20.9 µM (inactive) | 14.4 µM (inactive) | 18.1 µM (inactive) |  |
| c1ccc(Nc2nnc(-c3ccccc3Nc3ccccc3-c3nnc(Nc4ccccc4)s3)s2)cc1 | > 100 µM (inactive) | > 100 µM (inactive) | > 100 µM (inactive) | > 100 µM (inactive) | > 100 µM (inactive) | > 100 µM (inactive) | > 100 µM (inactive) | > 100 µM (inactive) | > 100 µM (inactive) | > 100 µM (inactive) | > 100 µM (inactive) | > 100 µM (inactive) | > 100 µM (inactive) |  | > 100 µM (inactive) | > 100 µM (inactive) | > 100 µM (inactive) |  | > 100 µM (inactive) | > 100 µM (inactive) |
| NCCN1C(=O)c2ccccc2C1c1ccc(Cl)cc1 (configuration not stated) | > 100 µM (inactive) | > 100 µM (inactive) | > 100 µM (inactive) | > 100 µM (inactive) | > 100 µM (inactive) | > 100 µM (inactive) | > 100 µM (inactive) | 92.3 µM (inactive) |  | > 100 µM (inactive) | > 100 µM (inactive) | > 100 µM (inactive) | > 100 µM (inactive) | > 100 µM (inactive) | > 100 µM (inactive) | > 100 µM (inactive) | > 100 µM (inactive) | > 100 µM (inactive) |  | > 100 µM (inactive) |

Reference: ChEMBL document CHEMBL1201862, “PubChem BioAssay data set” (2004)
